The source of these data is patent US7749972B2, “1-substituted-7-(β-D-glycopyranosyloxy)(aza)indole compound and pharmaceutical containing the same” (Kissei Pharmaceutical Co., Ltd., priority 2005, dated 2010).

The target of test [1] is T1, human SGLT1 (Homo sapiens, UniProt P13866).
T1 construct: expressed in transfected cells; host or cells: COS-7 cells, transient lipofection (Lipofectamine-2000), vector pcDNA3.1(-)
T1 sequence (P13866 1-664): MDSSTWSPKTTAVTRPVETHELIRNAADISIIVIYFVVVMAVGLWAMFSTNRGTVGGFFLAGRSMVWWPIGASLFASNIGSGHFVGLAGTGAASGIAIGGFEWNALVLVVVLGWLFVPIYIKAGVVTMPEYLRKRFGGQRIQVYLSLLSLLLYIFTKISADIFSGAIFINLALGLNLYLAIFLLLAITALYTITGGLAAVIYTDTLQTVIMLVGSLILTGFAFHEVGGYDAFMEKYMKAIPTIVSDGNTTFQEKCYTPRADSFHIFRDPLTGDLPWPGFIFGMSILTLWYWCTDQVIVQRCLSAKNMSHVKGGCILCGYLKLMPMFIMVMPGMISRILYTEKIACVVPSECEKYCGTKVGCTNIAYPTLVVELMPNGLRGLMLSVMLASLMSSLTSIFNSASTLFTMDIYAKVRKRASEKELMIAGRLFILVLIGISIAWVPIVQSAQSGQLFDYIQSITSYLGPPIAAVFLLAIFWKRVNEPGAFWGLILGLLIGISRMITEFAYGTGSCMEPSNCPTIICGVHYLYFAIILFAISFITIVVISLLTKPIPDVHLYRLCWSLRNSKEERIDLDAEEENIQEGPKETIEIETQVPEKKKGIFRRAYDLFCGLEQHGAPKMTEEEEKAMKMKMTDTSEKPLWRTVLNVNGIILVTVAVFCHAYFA
The experiment in a line: Inhibition of methyl-α-D-glucopyranoside (α-MG) uptake in COS-7 cells expressing human SGLT1. Type of test: cell-based. The conditions noted are these: COS-7 cells transiently expressing human SGLT1; 1 mM 14C-α-MG uptake, 37° C., 1 hour. How it is done: (§1) Assay for Inhibitory Effects on Human SGLT Activity
1) Cloning and Construction of the Vector Expressing Human SGLT1
The cDNA library was prepared for PCR amplification by reverse transcription from total RNA derived from human small intestine (Ori gene) using oligo-dT as a primer. Using this cDNA library as a template, the DNA fragment coding 1 to 2005 bp of human SGLT1 (ACCESSION: M24847), which was reported by Hediger et al., was amplified by PCR method and inserted into the multi-cloning site of pcDNA3.1(−) (Invitrogen). The DNA sequence inserted was perfectly matched to the previously reported sequence.
(§2) 3) Preparation of the Cells Expressing Human SGLT1 or SGLT2 […]
(§3) A mixture of non-labeled (Sigma) and ^14C-labeled α-MG (Amersham Pharmacia Biotech) was added to the uptake buffer (pH 7.4; containing 140 mM sodium chloride, 2 mM potassium chloride, […] calcium chloride, 1 mM magnesium chloride, 10 mM 2-[4-(2-hydroxyethyl)-1-piperazinyl]ethane sulfonic acid and 5 mM tris(hydroxymethyl)aminomethane) at the final concentration of 1 mM. […] Radioactivity was measured by means of micro-scintillation counter TopCount (Packard). One hundred % was set to the difference between the uptake in the control group and the basal uptake, and the uptake of methyl α-D-glucopyranoside at each drug concentration was calculated. […]

Test [2] has as its target T2, human SGLT2 (Homo sapiens, UniProt P31639).
T2 construct: expressed in transfected cells; host or cells: COS-7 cells, transient lipofection (Lipofectamine-2000), vector pcDNA3.1(-)
T2 sequence (P31639 1-672): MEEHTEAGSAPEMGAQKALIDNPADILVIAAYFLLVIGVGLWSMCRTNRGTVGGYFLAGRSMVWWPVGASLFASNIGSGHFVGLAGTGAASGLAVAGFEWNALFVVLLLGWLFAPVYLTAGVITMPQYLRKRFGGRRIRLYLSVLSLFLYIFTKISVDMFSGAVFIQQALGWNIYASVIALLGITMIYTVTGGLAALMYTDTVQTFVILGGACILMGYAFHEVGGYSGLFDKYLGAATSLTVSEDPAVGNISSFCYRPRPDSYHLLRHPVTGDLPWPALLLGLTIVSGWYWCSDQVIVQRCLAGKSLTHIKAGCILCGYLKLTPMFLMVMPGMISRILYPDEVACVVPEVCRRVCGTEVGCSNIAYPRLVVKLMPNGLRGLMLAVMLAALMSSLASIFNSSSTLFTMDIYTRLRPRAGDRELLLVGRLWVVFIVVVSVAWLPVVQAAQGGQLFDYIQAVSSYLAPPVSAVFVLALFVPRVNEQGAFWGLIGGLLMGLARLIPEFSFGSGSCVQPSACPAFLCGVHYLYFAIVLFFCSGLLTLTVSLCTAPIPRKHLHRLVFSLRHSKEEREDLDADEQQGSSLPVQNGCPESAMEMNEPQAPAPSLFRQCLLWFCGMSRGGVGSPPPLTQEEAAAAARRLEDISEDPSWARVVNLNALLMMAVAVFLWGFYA
The experiment in a line: Inhibition of methyl-α-D-glucopyranoside (α-MG) uptake in COS-7 cells expressing human SGLT2. Type of test: cell-based. Conditions: COS-7 cells transiently expressing human SGLT2; 1 mM 14C-α-MG uptake, 37° C., 1 hour. As to the method:
as §1
2) Cloning and Construction of the Vector Expressing Human SGLT2
The cDNA library was prepared for PCR amplification by reverse transcription from total RNA derived from human kidney (Ori gene) using oligo-dT as a primer. Using this cDNA library as a template, the DNA fragment coding 2 to 2039 bp of human SGLT2 (ACCESSION: M95549, M95299), which was reported by R. G. Wells et al., was amplified by PCR method and inserted into the multi-cloning site of pcDNA3.1(−) (Invitrogen). The DNA sequence inserted was perfectly matched to the previously reported sequence.
as §2, §3

Structures are written as SMILES.

As a reminder, the IC50 is the concentration that inhibits the measured activity by half. Read a low IC50 as inhibition by little substance. Regarding `Cc1ccc(Cn2ccc3cccc(O[C@@H]4O[C@H](CO)[C@@H](O)[C@H](O)[C@H]4O)c32)cc1` [Example 1, 7-(1-β-Glucopyranosyloxy)-1-(4-methylbenzyl)-1H-indole], in test [1], the IC50 came to 235 nM.

Compound `OC[C@H]1O[C@@H](Oc2cccc3ccn(CCc4ccccc4)c23)[C@H](O)[C@@H](O)[C@@H]1O` [Example 4] returned a 50% inhibitory concentration (IC50) in test [2] of 66 nM.

On to `OC[C@H]1O[C@@H](Oc2cccc3ccn(CCc4ccc(O)cc4)c23)[C@H](O)[C@@H](O)[C@@H]1O` [Example 7, 7-(β-D-Glucopyranosyloxy)-1-[2-(4-hydroxyphenyl)ethyl]-1H-indole], for which the figures for the IC50 in test [1] and in test [2] were 52 nM and 16 nM, respectively.
